Assay results from patent US20150359886A1, “SYSTEM AND METHODS FOR NANOSTRUCTURE PROTECTED DELIVERY OF TREATMENT AGENT AND SELECTIVE RELEASE THEREOF” (priority 2012, published 2015).

Columns and labels:
[1] = tested on: L3.6 cells; format: cell-based; conditions: for cell death (killing) of pancreatic cancer cells: FIG. 2, single agents even at high doses, combination at relatively low dose; for concentration required for a comparable effect with the exogenously applied treatment: exogenously applied Taxol + C6-ceramide combination, no CNT carrier
Protocol: Human pancreatic cancer lines PANC-1, MIA PaCa-2 (MIA) and L3.6 cells culture, cell viability assay (MTT dye assay) and Western blots assay were performed as described in Cao, C., et al. Galpha(i1) and Galpha(i3) are required for epidermal growth factor-mediated activation of the Akt-mTORC1 pathway. Science signaling 2, ra17 (2009).
(§1) Accordingly, experiments were carried out to examine the magnitude of chemosensitization of C6-ceramide on Taxol in different cancer cell lines. The pancreatic cancer cell lines L3.6. PANC-1 and MIA PaCa-2 (MIA) cells were selected for this experiment.
Using same pancreatic cancer cells (L3.6), the inductive heating release was we next tested the on-commandinductive-heating release of the encapsulated chemotherapeutic agents (Taxol and C6-ceramide) from CNTs. The drug-loaded CNTs were added to L3.6 cells for 12 hours, allowing them to be taken up by the cells. The cells were then washed with fresh basal medium (DMEM) 5 times to remove residual CNTs from the media, and a 30 min a.c. magnetic field (25 kHz) was applied to these cells to release the encapsulated drugs (Taxol and C6-ceramide) present in CNTs within the cells. After 48 h, the release of the drugs was inferred and assessed by the degree of cell death.

[2] = tested on: PANC-1; assay: Cell viability assay (MTT dye assay), PANC-1 pancreatic cancer cells; format: cell-based, Human; conditions: for cell death (killing) of pancreatic cancer cells: FIG. 2, single agents even at high doses, combination at relatively low dose
Protocol: (§2) Science signaling 2, ra17 (2009).
as §1, with “experiment. […] However, the side effects noted above remain a challenging problem in this combination regimen and calls for a new delivery method.” for “experiment.”

[3] = tested on: MIA PaCa-2 (MIA); assay: Cell viability assay (MTT dye assay), MIA PaCa-2 pancreatic cancer cells; format: cell-based, Human; conditions: for cell death (killing) of pancreatic cancer cells: FIG. 2, single agents even at high doses, combination at relatively low dose
Protocol: as §2
as §1, with “experiment. […] However, the side effects noted above remain a challenging problem in this combination regimen and calls for a new delivery method.” for “experiment.”

[4] = sensitization of Taxol-induced cell death

Compound | cell death (killing) of pancreatic cancer cells ([1]; L3.6) | concentration needed to reach the chemosensitization effect ([1]; L3.6, sensitization of Taxol-induced cell death) | concentration required for a comparable effect with the exogenously applied treatment [1] [µg/mL] | cell death (killing) of pancreatic cancer cells [2] | concentration needed to reach the chemosensitization effect [2, 4] | cell death (killing) of pancreatic cancer cells [3] | concentration needed to reach the chemosensitization effect [3, 4]
CCCCCCCCCCCCC/C=C/[C@@H](O)[C@H](CO)NC(=O)CCCCC [C6-ceramide] | limited killing | 5-10 micrograms per milliliter | 10 | limited killing | 5-10 micrograms per milliliter | limited killing | 5-10 micrograms per milliliter
CC(=O)O[C@H]1C(=O)[C@@]2(C)[C@H]([C@H](OC(=O)c3ccccc3)[C@]3(O)C[C@H](OC(=O)[C@H](O)[C@@H](NC(=O)c4ccccc4)c4ccccc4)C(C)=C1C3(C)C)[C@]1(OC(C)=O)CO[C@@H]1C[C@@H]2O [Taxol, Paclitaxel] | limited killing |  | 3 | limited killing |  | limited killing | 
